Patent US12678438B2, “Treatment of cancer with CDK inhibitors” (THE TRUSTEES OF THE UNIVERSITY OF PENNSYLVANIA, priority 2019, dated 2026)

Key:
AR p-S515 = assay: Immunoblot of AR p-S515; assay type: cell-based, human; details: LNCaP, 200 nM, 12 h
Experimental: Cell lysates were prepared with RIPA buffer (Boston Bioproducts, BP-115DG)-10 mM Tris-HCl pH 7.5, 1 mM EDTA, 400 mM NaCl, 0.5% NP-40 and 1 mM DTT, supplemented with protease inhibitor cocktail (Pierce, A32965) and phosphatase inhibitor (Thermo, 1861280). For immunoblotting 200 μg total protein extract was boiled in sample buffer and 15-25 μg aliquots were separated by SDS-PAGE and transferred onto Polyvinylidene Difluoride membrane (GE Healthcare, IPVH00010). The membrane was incubated for one hour in blocking buffer [Tris-buffered saline, 0.1% Tween (TBS-T), 5% nonfat dry milk followed by overnight incubation on a rocker at 4° C. with the primary antibody. Following a wash with TBS-T, the blot was incubated with horseradish peroxidase-conjugated secondary antibody for 2 hrs on a rocker at room temperature. The blots were washed again and signals were visualized using enhanced chemiluminescence system as per manufacturer's protocol (GE Healthcare) or Kwik Quant Imager (Kindle Biosciences). […]

[1] = system: DHT-induced AR target genes; assay: RNA-seq of DHT-stimulated VCaP and LNCaP cells; assay type: cell-based, human; details: 10 nM DHT with 100 nM THZ1
Experimental: For AR signaling stimulation experiments, cells were plated in complete media at required confluency. After 24 h cells were washed with DPBS and cultured in RPMI/DMEM without Phenol Red (Invitrogen, 11835030) and 10% charcoal-dextran stripped FBS (Gemini BioProducts, 100-119) for 72 h. Cells were then stimulated with 10 nM DHT for the specific time points.
RNA-seq libraries were constructed using the TruSeq sample Prep Kit V2 (Illumina) according to the manufacturer's instructions. Briefly, 1 μg of purified RNA was poly-A selected and fragmented with fragmentation enzyme. […] The DNA library was quantitated using Qubit and normalized to 4 nM prior to pooling. […] Library pools were clustered and run on Nextseq500 platform (Illumina Inc.) with single-end reads of 75 bases.
Single-end sequencing reads were demultiplexed using Illumina bcl2fastq, quality checked using FASTQC (bioinformatics.babraham ac uk/projects/fastqc), and aligned to the GRCh37 (release 27) genome using the STAR v2.5.1 aligner, with default settings. The read statistics generated by STAR v2.5.1 was used to ensure that the aligned reads in all samples were over 90% of the total reads. […]
Genes differentially expressed between any two sets of treatment were determined using DESeq2 (bioconductor.org/packages/release/bioc/html/DESeq.html), a statistical tool that employs shrinkage estimates to compute fold changes. […]

[2] = target: CAK complex-CDK7/CyclinH/MAT1 (Homo sapiens, UniProt P50613); assay: In vitro kinase assay, CAK complex with GST-MED1 protein, immunoblot; assay type: biochemical; details: 60 min at 30° C.
CAK complex-CDK7/CyclinH/MAT1, sequence (P50613 whole entry): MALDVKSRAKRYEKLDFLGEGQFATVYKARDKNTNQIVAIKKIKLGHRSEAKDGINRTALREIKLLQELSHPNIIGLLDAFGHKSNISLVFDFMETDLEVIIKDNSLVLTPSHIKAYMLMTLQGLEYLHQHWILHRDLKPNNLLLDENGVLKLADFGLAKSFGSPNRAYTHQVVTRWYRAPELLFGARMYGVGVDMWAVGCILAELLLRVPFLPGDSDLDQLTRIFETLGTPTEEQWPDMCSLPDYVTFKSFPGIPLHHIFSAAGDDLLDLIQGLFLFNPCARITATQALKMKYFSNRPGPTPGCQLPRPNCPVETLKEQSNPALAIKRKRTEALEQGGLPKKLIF
CAK complex-CDK7/CyclinH/MAT1, sequence (P51946 whole entry partner): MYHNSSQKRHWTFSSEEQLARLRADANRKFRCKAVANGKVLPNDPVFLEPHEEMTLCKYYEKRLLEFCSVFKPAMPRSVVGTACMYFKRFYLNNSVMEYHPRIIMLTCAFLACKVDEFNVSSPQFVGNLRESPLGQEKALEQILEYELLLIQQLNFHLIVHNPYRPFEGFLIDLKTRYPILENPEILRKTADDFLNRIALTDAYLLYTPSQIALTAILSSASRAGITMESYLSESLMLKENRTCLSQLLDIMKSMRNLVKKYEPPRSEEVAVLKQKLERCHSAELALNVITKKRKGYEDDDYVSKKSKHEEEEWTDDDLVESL
CAK complex-CDK7/CyclinH/MAT1, sequence (P51948 whole entry partner): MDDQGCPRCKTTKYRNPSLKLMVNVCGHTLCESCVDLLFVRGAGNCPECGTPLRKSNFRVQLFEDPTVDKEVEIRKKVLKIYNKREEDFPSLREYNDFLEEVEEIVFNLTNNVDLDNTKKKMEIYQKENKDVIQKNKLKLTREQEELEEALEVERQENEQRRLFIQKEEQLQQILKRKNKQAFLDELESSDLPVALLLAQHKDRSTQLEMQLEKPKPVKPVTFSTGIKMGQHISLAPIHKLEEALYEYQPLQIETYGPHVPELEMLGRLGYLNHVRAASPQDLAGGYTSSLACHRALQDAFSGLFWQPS
Experimental: The kinase assay was performed by preparing the master mixture of 3 ul (5×) kinase assay buffer, 0.5 ul of 500 uM ATP (BPS Bioscience, 79603), 1.25 ul (1 ug/ul) Human Recombinant GST-MED1 protein (Lifespan Biosciences, LS-G59680-25), and 7.75 ul of kinase assay grade water per reaction for the desired number of reactions. […] Additionally, kinase assay reaction mixtures containing no ATP and CDK7 were used as negative controls. Next, CAK complex-CDK7/CyclinH/MAT1 enzyme (BPS Bioscience) was thawed and diluted to (10 ng/111) in 1× kinase assay buffer. The reactions were initiated by adding 10 ul of diluted CAK complex to the designated wells and incubated at 30° C. for 60 min. After the incubation the reaction was stopped, and the mixture were analyzed through western blotting.

AR-positive cells = assay: Long-term colony formation assay; assay type: cell-based, human; details: 50 nM THZ1, 12-14 days
Experimental: For the long-term colony formation assay, 10,000-50,000 cells/well in six-well plates (n=3) were seeded and treated with the required drugs/compounds or vehicle for 14 days. Media was refreshed every 4-5 days. Colonies were fixed and stained using 0.5% (w/v) crystal violet (Sigma, C0775) in 20% (v/v) methanol for 30 min, washed with distilled deionized water, and air-dried. To quantify staining, we washed the stained wells with 500 μL 10% acetic acid and using colorimetric assays determined the absorbance at 590 nm using a spectrophotometer (Synergy HT, BioTek Instruments, Vermont-USA).

VCaP cells = assay: RNA-seq gene expression profiling; assay type: cell-based, human; details: 100 nM THZ1, 24 h
Experimental: (§1) RNA-seq libraries were constructed using the TruSeq sample Prep Kit V2 (Illumina) according to the manufacturer's instructions. Briefly, 1 μg of purified RNA was poly-A selected and fragmented with fragmentation enzyme. After first and second strand synthesis from a template of poly-A selected/fragmented RNA, other procedures from end-repair to PCR amplification were performed according to the instructions given in the protocol. Libraries were purified and validated for appropriate size on a 2100 Bioanalyzer DNA 1000 chip (Agilent Technologies, Inc.). The DNA library was quantitated using Qubit and normalized to 4 nM prior to pooling. Libraries were pooled in an equimolar fashion and diluted to a final concentration of 1.8 pM. Library pools were clustered and run on Nextseq500 platform (Illumina Inc.) with single-end reads of 75 bases.
(§2) Single-end sequencing reads were demultiplexed using Illumina bcl2fastq, quality checked using FASTQC (bioinformatics.babraham ac uk/projects/fastqc), and aligned to the GRCh37 (release 27) genome using the STAR v2.5.1 aligner, with default settings. The read statistics generated by STAR v2.5.1 was used to ensure that the aligned reads in all samples were over 90% of the total reads. The transcripts were assembled using cufflinks and the count and FPKM tables were computed using cuffnorm. Principal component analysis on the FPKM values was used to cluster the samples for further quality check.
(§3) Genes differentially expressed between any two sets of treatment were determined using DESeq2 (bioconductor.org/packages/release/bioc/html/DESeq.html), a statistical tool that employs shrinkage estimates to compute fold changes. In all our calculations, the raw RNA-seq read counts from biological duplicates, for each treatment condition, was used as the input for DESeq2.

LNCaP cells = assay: RNA-seq gene expression profiling; assay type: cell-based, human; details: 100 nM THZ1, 24 h
Experimental: as §1, §2, §3

DU145 cells = assay: RNA-seq gene expression profiling; assay type: cell-based, human; details: DU145, 100 nM THZ1, 24 h
Experimental: as §1, §2, §3

`CN(C)C/C=C/C(=O)Nc1ccc(C(=O)Nc2cccc(Nc3ncc(Cl)c(-c4c[nH]c5ccccc45)n3)c2)cc1` [THZ1] was tested, and the “AR p-S515 levels” value (AR p-S515) was “did not reduce AR p-S515 levels”, the “genome-wide DHT-induced differentially expressed AR target genes” value [1] was “completely reversed almost all” and the “Threonine phosphorylation of GST-MED1 (aa 1391-1490) at T1457” value [2] was “completely inhibited”. The long-term colony formation (AR-positive cells) was “severely inhibited long-term colony formation”, the “genes down (RNA-seq)” value (VCaP cells) was 1203 and the “genes up (RNA-seq)” value (VCaP cells) was 1325. For the same compound, the “genes down (RNA-seq)” value (LNCaP cells) was 1695, the “genes up (RNA-seq)” value (LNCaP cells) was 2612 and the “genes down (RNA-seq)” value (DU145 cells) was 190. The “genes up (RNA-seq)” value (DU145 cells) was 191.
